{"source": "patent US10301664B2", "about": "“Repurposing non-antimicrobial drugs and clinical molecules to treat bacterial infections” (Purdue Research Foundation, priority 2015, dated 2019)", "key": {"[1]": {"tested_on": "MRSA (23) clinical isolates", "experiment": "MIC against Gram +ve clinical isolates: MRSA", "type": "cell-based, S. aureus", "conditions": "for MIC50: MRSA (23)"}, "[2]": {"tested_on": "VISA and VRSA (14) clinical isolates", "experiment": "MIC against Gram +ve clinical isolates: VISA and VRSA", "type": "cell-based, S. aureus"}, "[3]": {"tested_on": "VRE (14) clinical isolates", "experiment": "MIC against Gram +ve clinical isolates: VRE", "type": "cell-based, enterococcus"}, "A. baumannii": {"tested_on": "A. baumannii", "experiment": "MIC against G-ve with and without colistin: A. baumannii", "type": "cell-based"}, "E.. coli O157:H7": {"tested_on": "E.. coli O157:H7", "experiment": "MIC against G-ve with and without colistin: E. coli O157:H7", "type": "cell-based"}, "S. Typhimurium": {"tested_on": "S. Typhimurium", "experiment": "MIC against G-ve with and without colistin: S. Typhimurium", "type": "cell-based", "conditions": "without colistin"}, "K. pneumonia": {"tested_on": "K. pneumonia", "experiment": "MIC against G-ve with and without colistin: K. pneumonia", "type": "cell-based"}, "P. aeruginosa": {"tested_on": "P. aeruginosa", "experiment": "MIC against G-ve with and without colistin: P. aeruginosa", "type": "cell-based"}, "[4]": {"tested_on": "Colistin resistant clinical isolates of P. aeruginosa", "experiment": "MIC against G-ve with and without colistin: colistin resistant P. aeruginosa", "type": "cell-based", "conditions": "without colistin"}, "S. aureus biofilm": {"tested_on": "S. aureus biofilm", "experiment": "Reduction of adherent S. aureus biofilm", "type": "cell-based", "conditions": "compared to linezolid, mupirocin, vancomycin, rifampicin", "text": "(§1) Biofilms are a major contributing factor to lack of healing of chronic wounds, as the matrix-embedded bacteria are recalcitrant to antibiotics and host immune response, rendering them extremely challenging and costly to treat."}, "S. epidermidis biofilm": {"tested_on": "S. epidermidis biofilm", "experiment": "Reduction of adherent S. epidermidis biofilm", "type": "cell-based", "conditions": "compared to linezolid, mupirocin, vancomycin, rifampicin", "text": "as §1"}, "MRSA USA300 [5]": {"tested_on": "MRSA USA300", "experiment": "Mouse-model of staphylococcal skin infection: bacterial load", "type": "in vivo, BALB/c mice", "conditions": "topical 20 mg of 2% in petroleum jelly, twice a day for 5 days", "protocol": "Auranofin and ebselen were evaluated in a mouse-model of staphylococcal skin infection. Seven groups of BALB/c mice (n=5) were inoculated with MRSA USA300 (4.3×10^9 CFU/ml) intradermally. 48 hours after infection and formation of open wound, four groups were treated topically with 20 mg of 2% Ebselen, 2% Auranofin, 2% mupirocin or 2% […] in petroleum jelly (ointment—skin protectant). Two groups were treated orally with either linezolid or clindamycin (25 mg/kg). The last group received the vehicles alone (petroleum jelly). All groups were treated twice a day for 5 days.\nSince the clinical severity of bacterial skin infections is driven by the excess host pro-inflammatory cytokines rather than by bacterial burden, the recognized anti-inflammatory response of Auranofin and Ebselen combined with the potent antimicrobial, killing intracellular MRSA, and antibiofilm activities, should provide great advantage in the treatment of bacterial skin infection and wound healing. In this Example, we evaluated Auranofin and Ebselen in a mouse-model of staphylococcal skin infection. Seven groups of BALB/c mice (n=5) were inoculated with MRSA USA300 (4.3×10^9 CFU/ml) intradermally. 48 hours after infection and formation of open wound, four groups were treated topically with 20 mg of 2% ebselen, 2% auranofin, 2% mupirocin or 2% […] in petroleum jelly (ointment—skin protectant). […]"}, "[6]": {"tested_on": "pro-inflammatory cytokines (TNF-α, IL-6, IL-1β, MCP-1)", "experiment": "Cytokines production in MRSA skin infection in mice", "type": "in vivo", "conditions": "topical application", "text": "Each points represents single mice and each group has 5 mice. P values of (*P≤0.05) (**P≤0.01) are considered as significant. We investigated the immunomodulatory activity of Auranofin and ebselen in a topical application against MRSA skin infection in mice.\nIn this Example, we investigated the immunomodulatory activity of Auranofin and Ebselen in a topical application against MRSA skin infection in mice. […] These cytokines are thought to play a greater role in the severity of S. aureus skin infections more than the size of the bacterial burden and can lead to an infection persisting for a longer time period. Therefore, the ability of Auranofin and Ebselen reduces the production of these cytokines in the infected mice, indicating the clinical relevance of these drugs if used for antimicrobial treatment."}, "[7]": {"tested_on": "intracellular MRSA USA300 in J774A.1 cells", "experiment": "Activity against intracellular MRSA in J774A.1 cells", "type": "cell-based", "conditions": "compared to vancomycin and linezolid"}, "[8]": {"tested_on": "MRSA USA300-0114 toxins hla and PVL", "experiment": "MRSA toxin production by ELISA", "type": "cell-based, S. aureus", "conditions": "1 hour incubation"}, "[9]": {"tested_on": "multiple MRSA and VRSA strains", "experiment": "Synergy with conventional antimicrobials in vitro", "type": "cell-based, S. aureus", "conditions": "most tested conventional antimicrobials, all tested strains (few exceptions such as VRSA5)"}, "[10]": {"tested_on": "MRSA USA300 persister cells tolerant to ciprofloxacin", "experiment": "Killing of S. aureus persister cells", "type": "cell-based", "conditions": "added after ciprofloxacin treatment; 48 h"}, "MRSA USA300 [11]": {"tested_on": "MRSA USA300", "experiment": "Mouse model of MRSA systemic infection (lethal)", "type": "in vivo, BALB/c mice", "conditions": "three doses", "text": "(§2) For MRSA systemic infection, neutropenic Female BALB/c mice were inoculated IP with 1×10^9 MRSA USA300."}, "MRSA USA300 [12]": {"tested_on": "MRSA USA300", "experiment": "Non-lethal MRSA infection mice model", "type": "in vivo", "conditions": "two doses oral 0.25 mg/kg", "text": "as §2"}, "S. aureus": {"tested_on": "S. aureus", "experiment": "Macromolecular synthesis (MMS): incorporation of radioactive precursors", "type": "cell-based", "text": "In this Example we examined the effect of Auranofin and Ebselen on incorporation of radioactive precursors into macromolecules in S. aureus."}, "[13]": {"tested_on": "E. coli cellular extracts (bacterial translation process)", "experiment": "Bacterial transcription and translation assay, luciferase readout", "type": "biochemical", "text": "For bacterial protein-synthesis inhibition, E. coli cellular extracts in a transcription and translation assay were used to monitor protein production via luciferase readout.\n(§3) In this Example, we tested the effects of the two drugs on bacterial, mammalian and mitochondrial protein-synthesis. For bacterial protein-synthesis inhibition, we used E. coli cellular extracts in a transcription and translation assay that monitors protein production via luciferase readout."}, "[14]": {"tested_on": "rabbit reticulocyte lysate system (mammalian protein synthesis)", "experiment": "Mammalian protein synthesis in rabbit reticulocyte lysate system", "type": "biochemical", "text": "(IC50) of Auranofin in rabbit reticulocyte extract. […] The results are given as means±SD (data without error bars indicate that the SD is too small to be seen).\nas §3"}, "[15]": {"conditions": "in vivo; cited from earlier work"}, "[16]": {"conditions": "concentrations significantly below the MIC"}}}
{"smiles": "CC(=O)OC[C@H]1O[C@@H]([S-])[C@H](OC(C)=O)[C@@H](OC(C)=O)[C@@H]1OC(C)=O.CCP(CC)CC.[Au+]", "note": "[Auranofin]", "values": [{"measurement": "MIC50", "setting": "[1]; first column per drug", "value": 0.062, "unit": "µg/mL"}, {"measurement": "MIC50", "setting": "[1]; second column per drug", "value": 0.125, "unit": "µg/mL"}, {"measurement": "MIC90 (MICs at which 90% of MRSA isolates were inhibited)", "setting": "[1]; MRSA isolates", "value": 0.125, "unit": "µg/mL"}, {"measurement": "MIC50", "setting": "[2]; first column per drug", "value": 0.062, "unit": "µg/mL"}, {"measurement": "MIC50", "setting": "[2]; second column per drug", "value": 0.062, "unit": "µg/mL"}, {"measurement": "MIC50", "setting": "[3]; first column per drug", "value": 0.125, "unit": "µg/mL"}, {"measurement": "MIC50", "setting": "[3]; second column per drug", "value": 0.125, "unit": "µg/mL"}, {"measurement": "MIC, colistin (+)", "setting": "A. baumannii; with sub-inhibitory colistin 0.0625 μg/ml", "value": 0.25, "unit": "µg/mL"}, {"measurement": "MIC, colistin (−)", "setting": "A. baumannii; without colistin", "value": 16, "unit": "µg/mL"}, {"measurement": "MIC, colistin (+)", "setting": "E.. coli O157:H7; E. coli O157:H7, with sub-inhibitory colistin 0.0625 μg/ml", "value": 0.0625, "unit": "µg/mL"}, {"measurement": "MIC, colistin (−)", "setting": "E.. coli O157:H7; E. coli O157:H7, without colistin", "value": 64, "unit": "µg/mL"}, {"measurement": "MIC, colistin (−)", "setting": "S. Typhimurium", "value": 128, "unit": "µg/mL"}, {"measurement": "MIC, colistin (+)", "setting": "K. pneumonia; with sub-inhibitory colistin 0.125 μg/ml", "value": 0.125, "unit": "µg/mL"}, {"measurement": "MIC, colistin (−)", "setting": "K. pneumonia; without colistin", "value": 256, "unit": "µg/mL"}, {"measurement": "MIC, colistin (+)", "setting": "P. aeruginosa; with sub-inhibitory colistin 0.25 μg/ml", "value": 0.0312, "unit": "µg/mL"}, {"measurement": "MIC, colistin (−)", "setting": "P. aeruginosa; without colistin", "value": 256, "unit": "µg/mL"}, {"measurement": "MIC, colistin (−)", "setting": "[4]", "value": ">256", "unit": "µg/mL"}, {"measurement": "reduction of adherent biofilm", "setting": "S. aureus biofilm", "value": "superior in reducing adherent biofilms"}, {"measurement": "reduction of adherent biofilm", "setting": "S. epidermidis biofilm", "value": "superior in reducing adherent biofilms"}, {"measurement": "bacterial load in MRSA skin lesions", "setting": "MRSA USA300 [5]", "value": "significantly reduced the bacterial load"}, {"measurement": "level of IL-6", "setting": "[6]", "value": "significantly reduced"}, {"measurement": "level of TNF-α", "setting": "[6]", "value": "significantly reduced"}, {"measurement": "level of IL-1β", "setting": "[6]; data not shown", "value": "significantly reduced"}, {"measurement": "level of MCP-1", "setting": "[6]; data not shown", "value": "significantly reduced"}, {"measurement": "reduction of intracellular MRSA", "setting": "[7]", "value": "superior in reducing intracellular MRSA"}, {"measurement": "production of toxin PVL", "setting": "[8]", "value": "significantly suppressed toxin production"}, {"measurement": "production of toxin hla", "setting": "[8]", "value": "significantly suppressed toxin production"}, {"measurement": "relationship with conventional antimicrobials in vitro", "setting": "[9]", "value": "synergistic relationship"}, {"measurement": "effect on number of planktonic persister cells", "setting": "[10]", "value": "complete eradication of planktonic persister cells"}, {"measurement": "mice survival", "setting": "MRSA USA300 [11]; oral 0.125 mg/kg once daily", "value": 40, "unit": "%"}, {"measurement": "mice survival", "setting": "MRSA USA300 [11]; oral 0.25 mg/kg once daily", "value": 80, "unit": "%"}, {"measurement": "bacterial load in the liver and spleen", "setting": "MRSA USA300 [12]", "value": "significantly reduced the bacterial load"}, {"measurement": "DNA synthesis inhibition", "setting": "S. aureus; [16]", "value": "clear dose-dependent disruption"}, {"measurement": "cell wall synthesis inhibition", "setting": "S. aureus; [16]", "value": "clear dose-dependent disruption"}, {"measurement": "protein synthesis inhibition", "setting": "S. aureus; [16]", "value": "clear dose-dependent disruption"}, {"measurement": "effect on RNA synthesis", "setting": "S. aureus; up to 4×MIC", "value": "no significant effect"}, {"measurement": "effect on lipid synthesis", "setting": "S. aureus; up to 4×MIC", "value": "no significant effect"}, {"measurement": "IC50 of bacterial translation", "setting": "[13]", "value": 0.038, "unit": "µg/mL"}, {"measurement": "inhibition of translation in mammalian protein synthesis", "setting": "[14]", "value": "did not inhibit translation"}, {"measurement": "clinically achievable blood concentration", "setting": "[15]", "value": 2.37, "unit": "µg/mL"}]}
